According to US8846601B2, “Melanocortin receptor-specific peptides” (Palatin Technologies, Inc., priority 2009, dated 2014):
pEC50, pKi: −log10 of the molar value. Read-outs that look alike come from different tables or passages of the source. Peptide text beside a SMILES is read from it.

How the values were obtained:
hMC4-R [1] = target: T1, hMC4-R (Homo sapiens (Human), UniProt P32245); experiment: Competitive inhibition binding assay using [I125]-NDP-α-MSH, hMC4-R membranes
Summary of the method: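 Membranes from HEK-293 cells expressing recombinant hMC1-R or hMC4-R incubated with 0.1 nM (MC1-R) or 0.2 nM (MC4-R) [I125]-NDP-α-MSH and increasing peptide concentrations in HEPES pH 7.5, 60 min at 37 °C; filtered, gamma counted.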

hMC1-R [2] = target: T2, hMC1-R (Homo sapiens (Human), UniProt Q01726); experiment: Competitive inhibition binding assay, human recombinant MC1-R
Protocol: (§1) A competitive inhibition binding assay is performed using membrane homogenates prepared from HEK-293 cells that express recombinant hMC4-R, hMC3-R, or hMC5-R, and from B-16 mouse melanoma cells (containing endogenous MC1-R). In some instances, HEK-293 cells that express recombinant hMC1-R were employed. In the examples that follow, all MC3-R, MC4-R and MC5-R values are for human recombinant receptors. […] Membrane homogenates were incubated with 0.2 nM (for hMC4-R) 0.4 nM (for MC3-R and MC5-R) or 0.1 nM (for mouse B16 MC1-R or hMC1-R) [I^125]-NDP-α-MSH (Perkin Elmer) and increasing concentrations of test peptides of the present invention in buffer containing 25 mM HEPES buffer (pH 7.5) with 100 mM NaCl, 2 mM CaCl2, 2 mM MgCl2, 0.3 mM 1,10-phenanthroline, and 0.2% bovine serum albumin. After incubation for 60 minutes at 37° C., the assay mixture was filtered and the membranes washed three times with ice-cold buffer. Filters were dried and counted in a gamma counter for bound radioactivity. […] Maximal specific binding (100%) was defined as the difference in radioactivity (cpm) bound to cell membranes in the absence and presence of 1 μM NDP-α-MSH. […] Each assay was conducted in triplicate and the actual mean values are described, with results less than 0% reported as 0%. Ki values for test peptides of the present invention were determined using Graph-Pad Prism® curve-fitting software.

hMC1-R [3] = target: T2, hMC1-R; experiment: Functional assay (EC50 and intrinsic activity) at hMC1-R; assay type: cell-based
Male Sprague-Dawley rats [4] = experiment: Induction of penile erection in male rats; assay type: in vivo, rat; conditions: for induction of penile erection: male Sprague-Dawley rats, 60 minute observation, No. 154 as trifluoracetic acid salt, No. 155 as acetate salt
From the text: Each dose group contained six or seven animals, with video observation for sixty minutes following administration.

[5] = Pharmacokinetic studies, rat model, subcutaneous injection; conditions: in vivo, sc, formulation as in Section 9.7, read-out: circulation half life (converted)
hMC4-R [6] = target: T1, hMC4-R; experiment: Assay for agonist activity: cAMP accumulation in HEK-293 cells that express hMC4-R; conditions: for functional status at MC4-R (agonist / partial agonist): agonist = intrinsic activity 70% or higher, partial agonist 10-70%
Protocol: By “intrinsic activity” is meant the maximal functional activity achievable by a compound in a specified melanocortin receptor expressing cell system, such as the maximal stimulation of adenylyl cyclase.
Accumulation of intracellular cAMP was examined as a measure of the ability of the peptides of the present invention to elicit a functional response in HEK-293 cells that express MC4-R. Confluent HEK-293 cells that express recombinant hMC4-R were detached from culture plates by incubation in enzyme-free cell dissociation buffer. Dispersed cells were suspended in Earle's Balanced Salt Solution containing 10 mM HEPES (pH 7.5), 1 mM MgCl2, 1 mM glutamine, 0.5% albumin and 0.3 mM 3-isobutyl-1-methyl-xanthine (IBMX), a phosphodiesterase inhibitor. […] Cells were exposed for 15 minutes at 37° C. to peptides of the present invention dissolved in DMSO (final DMSO concentration of 1%) at a concentration range of 0.05-5000 nM in a total assay volume of 200 μL. […] Data analysis was performed by nonlinear regression analysis with Graph-Pad Prism® software. The maximum efficacies of the test peptides of the present invention were compared to that achieved by the reference melanocortin agonist NDP-αMSH.

[7] = target: T3, MC1-R (B-16 mouse melanoma cells) (Mus musculus (Mouse), UniProt Q01727); experiment: Competitive binding using Eu-labeled NDP-α-MSH, MC1-R
Protocol: A competitive inhibition binding assay is performed using membrane homogenates prepared from HEK-293 cells that express recombinant hMC4-R, hMC3-R, or hMC5-R, and from B-16 mouse melanoma cells (containing endogenous MC1-R). In some instances, HEK-293 cells that express recombinant hMC1-R were employed. In the examples that follow, all MC3-R, MC4-R and MC5-R values are for human recombinant receptors. MC1-R values are for B-16 mouse melanoma cells, unless the heading is “hMC1-R”, in which case the value is for human recombinant MC1-R. Assays were performed in 96 well GF/B Millipore multiscreen filtration plates (MAFB NOB10) pre-coated with 0.5% bovine serum albumin (Fraction V). Membrane homogenates were incubated with 0.2 nM (for hMC4-R) 0.4 nM (for MC3-R and MC5-R) or 0.1 nM (for mouse B16 MC1-R or hMC1-R) [I^125]-NDP-α-MSH (Perkin Elmer) and increasing concentrations of test peptides of the present invention in buffer containing 25 mM HEPES buffer (pH 7.5) with 100 mM NaCl, 2 mM CaCl2, 2 mM MgCl2, 0.3 mM 1,10-phenanthroline, and 0.2% bovine serum albumin. After incubation for 60 minutes at 37° C., the assay mixture was filtered and the membranes washed three times with ice-cold buffer. Filters were dried and counted in a gamma counter for bound radioactivity. […] Maximal specific binding (100%) was defined as the difference in radioactivity (cpm) bound to cell membranes in the absence and presence of 1 μM NDP-α-MSH. […] Ki values for test peptides of the present invention were determined using Graph-Pad Prism® curve-fitting software.
Alternatively, a competitive inhibition binding assay was performed employing Eu-NDP-α-MSH (PerkinElmer Life Sciences catalog No. AD0225) with determination by time-resolved fluorometry (TRF) of the lanthanide chelate. […] The plates were incubated on a shaker for 15 minutes and read at 340 nm excitation and 615 nm emission wavelengths. […] Ki values were determined by curve-fitting with Graph-Pad Prism® software using a one-site fixed-slope competition binding model.

hMC3-R [8] = target: T4, hMC3-R (Homo sapiens (Human), UniProt P41968); experiment: Competitive inhibition binding assay using [I125]-NDP-α-MSH, MC3-R
Protocol: as §1

[9] = target: T3, MC1-R (B-16 mouse melanoma cells); experiment: Competitive inhibition binding assay using [I125]-NDP-α-MSH, MC1-R
Protocol: (§2) A competitive inhibition binding assay is performed using membrane homogenates prepared from HEK-293 cells that express recombinant hMC4-R, hMC3-R, or hMC5-R, and from B-16 mouse melanoma cells (containing endogenous MC1-R). In some instances, HEK-293 cells that express recombinant hMC1-R were employed. In the examples that follow, all MC3-R, MC4-R and MC5-R values are for human recombinant receptors. MC1-R values are for B-16 mouse melanoma cells, unless the heading is “hMC1-R”, in which case the value is for human recombinant MC1-R. Assays were performed in 96 well GF/B Millipore multiscreen filtration plates (MAFB NOB10) pre-coated with 0.5% bovine serum albumin (Fraction V). […] Filters were dried and counted in a gamma counter for bound radioactivity. […] Maximal specific binding (100%) was defined as the difference in radioactivity (cpm) bound to cell membranes in the absence and presence of 1 μM NDP-α-MSH. […] Ki values for test peptides of the present invention were determined using Graph-Pad Prism® curve-fitting software.

hMC3-R [10] = target: T4, hMC3-R; experiment: Competitive binding using Eu-labeled NDP-α-MSH, MC3-R
Protocol: as §2
Alternatively, a competitive inhibition binding assay was performed employing Eu-NDP-α-MSH (PerkinElmer Life Sciences catalog No. AD0225) with determination by time-resolved fluorometry (TRF) of the lanthanide chelate. […] The plates were incubated on a shaker for 15 minutes and read at 340 nm excitation and 615 nm emission wavelengths. […]

Male Sprague-Dawley rats [11] = experiment: Rat feeding studies: food intake and body weight change; assay type: in vivo; conditions: for food intake and rate of change in body weight: rat feeding studies, bremelanotide as positive control; for decrease in food consumption compared to control: rats
Protocol: Change in food intake and body weight was evaluated for selected peptides administered by intravenous (IV) or subcutaneous injection routes. Male Sprague-Dawley rats were obtained from Hilltop Lab Animals, Inc. (Scottsdale, Pa.) or other vendors. Animals were individually housed in conventional polystyrene hanging cages and maintained on a controlled 12 hour on/off light cycle. Water and pelleted food was provided ad libitum. The rats were dosed IV with vehicle or selected peptides (0.3 to 1.0 mg/kg), or dosed subcutaneously with vehicle or selected peptides (doses up to 30 mg/kg). […] The changes in body weight and food intake for the 48 hour and 72 hour periods after dosing can also be measured to determine reversal of changes in body weight and food intake effects back to baseline levels.

[12] = averaged, [I125]-NDP-α-MSH (values not marked *), read-out: MC4-R Ki
[13] = 1 mg/kg, 0-2, 0-4 and 0-20 hour periods

T1 sequence (P32245 whole entry): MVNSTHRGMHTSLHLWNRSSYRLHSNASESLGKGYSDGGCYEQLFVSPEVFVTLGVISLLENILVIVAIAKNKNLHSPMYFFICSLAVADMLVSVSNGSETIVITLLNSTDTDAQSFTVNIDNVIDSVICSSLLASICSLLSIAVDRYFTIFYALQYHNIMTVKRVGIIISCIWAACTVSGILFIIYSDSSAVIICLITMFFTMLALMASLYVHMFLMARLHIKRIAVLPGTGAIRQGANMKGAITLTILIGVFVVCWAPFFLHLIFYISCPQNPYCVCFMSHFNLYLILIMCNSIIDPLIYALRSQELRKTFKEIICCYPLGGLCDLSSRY
T3 sequence (Q01727 whole entry): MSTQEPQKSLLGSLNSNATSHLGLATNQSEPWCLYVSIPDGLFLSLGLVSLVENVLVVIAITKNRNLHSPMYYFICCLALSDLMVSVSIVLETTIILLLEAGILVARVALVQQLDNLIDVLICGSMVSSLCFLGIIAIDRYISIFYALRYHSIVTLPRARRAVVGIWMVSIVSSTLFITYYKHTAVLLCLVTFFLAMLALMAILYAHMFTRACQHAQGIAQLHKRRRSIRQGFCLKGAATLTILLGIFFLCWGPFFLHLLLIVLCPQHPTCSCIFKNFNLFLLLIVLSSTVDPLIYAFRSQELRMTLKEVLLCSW
T2 sequence (Q01726 whole entry): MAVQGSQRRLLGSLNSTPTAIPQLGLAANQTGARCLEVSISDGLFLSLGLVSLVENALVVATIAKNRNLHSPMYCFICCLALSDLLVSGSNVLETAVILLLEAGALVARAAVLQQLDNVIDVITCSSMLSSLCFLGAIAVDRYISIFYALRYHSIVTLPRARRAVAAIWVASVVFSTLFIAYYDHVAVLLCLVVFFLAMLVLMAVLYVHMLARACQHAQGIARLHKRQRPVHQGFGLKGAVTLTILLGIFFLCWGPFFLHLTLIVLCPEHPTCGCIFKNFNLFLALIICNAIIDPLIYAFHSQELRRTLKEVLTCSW
T4 sequence (P41968 whole entry): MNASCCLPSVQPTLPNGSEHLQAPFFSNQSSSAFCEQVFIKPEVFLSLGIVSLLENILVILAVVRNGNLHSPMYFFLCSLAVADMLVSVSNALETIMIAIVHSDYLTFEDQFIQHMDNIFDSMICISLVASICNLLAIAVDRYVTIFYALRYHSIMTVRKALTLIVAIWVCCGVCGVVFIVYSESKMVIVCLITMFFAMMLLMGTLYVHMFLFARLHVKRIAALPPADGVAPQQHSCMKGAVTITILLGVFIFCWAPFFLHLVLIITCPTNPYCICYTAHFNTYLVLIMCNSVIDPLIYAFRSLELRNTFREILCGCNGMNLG

Structure (SMILES) | pKi (hMC4-R [1]; [12]) | pKi (hMC4-R [1]; read-out: hMC4-R (Ki)) | pKi (hMC1-R [2]) | pEC50 (hMC1-R [3]) | half-life [5] [min] | pEC50 (hMC4-R [6]) | pKi [7] | functional status at MC4-R (agonist / partial agonist) (hMC4-R [6]) | pKi (hMC3-R [10]) | induction of penile erection (Male Sprague-Dawley rats [4]; subcutaneous) | pKi [9] | food intake and rate of change in body weight (Male Sprague-Dawley rats [11]) | decrease in food consumption compared to control (Male Sprague-Dawley rats [11]; [13]) | also measured
CC(=O)N[C@@H](CCCNC(=N)N)C(=O)N[C@H]1CC(=O)NCCCC[C@@H](C(N)=O)NC(=O)[C@H](Cc2c[nH]c3ccccc23)NC(=O)[C@H](CCCNC(=N)N)NC(=O)[C@@H](Cc2ccccc2)NC(=O)[C@H](CCC(N)=O)NC1=O [Peptide No. 32, Ac-Arg-cyclo(Asp-Gln- D-Phe-Arg-Trp-Lys)- NH2] |  |  |  |  |  |  | 6.17 | agonist |  |  | 6.88 |  |  | pKi (hMC3-R [8]): 6.47; observed spontaneous erections (Male Sprague-Dawley rats [4]; rats, subcutaneous, doses of 1, 3 or 10 mg/kg): increase in observed spontaneous erections
CC(=O)N[C@@H](CCCNC(=N)N)C(=O)N[C@H]1CC(=O)NCCCC[C@@H](C(N)=O)NC(=O)[C@H](Cc2c[nH]c3ccccc23)NC(=O)[C@H](CCCNC(=N)N)NC(=O)[C@@H](Cc2ccccc2)NC(=O)[C@H](Cc2c[nH]cn2)NC1=O [Peptide No. 1, Ac-Arg-cyclo(Asp-His- D-Phe-Arg-Trp-Lys)- NH2] |  |  |  |  |  |  | 8.40 | agonist | 6.99 |  | 8.52 | reduce food intake and decrease the rate of change in body weight | statistically significant | decrease in food consumption compared to control (Male Sprague-Dawley rats [11]; 0.3 mg/kg, 0-2, 0-4 and 0-20 hour periods): statistically significant; observed spontaneous erections compared to vehicle (Male Sprague-Dawley rats [4]; rats, IV, doses of 0.3 or 1 mg/kg): statistically significant increase
CC(=O)N[C@@H](CCCNC(=N)N)C(=O)N[C@H]1CC(=O)NCCCC[C@@H](C(N)=O)NC(=O)[C@H](Cc2c[nH]c3ccccc23)NC(=O)[C@H](CCCNC(=N)N)NC(=O)[C@@H](Cc2ccccc2)NC(=O)[C@H](C(C)C)NC1=O [Peptide No. 16, Ac-Arg-cyclo(Asp-Val- D-Phe-Arg-Trp-Lys)- NH2] |  |  |  |  |  |  | 6.49 | partial agonist | 5.98 |  |  | reduce food intake and decrease the rate of change in body weight | statistically significant | decrease in food consumption compared to control (Male Sprague-Dawley rats [11]; 0.3 mg/kg, 0-2 and 0-4 hour periods): statistically significant

The next lines start with results.

pKi (hMC4-R [1]; [12]) | pKi (hMC4-R [1]; read-out: hMC4-R (Ki)) | pKi (hMC1-R [2]) | pEC50 (hMC1-R [3]) | half-life [5] [min] | pEC50 (hMC4-R [6]) | pKi [7] | functional status at MC4-R (agonist / partial agonist) (hMC4-R [6]) | pKi (hMC3-R [10]) | Structure (SMILES) | induction of penile erection (Male Sprague-Dawley rats [4]; subcutaneous) | pKi [9] | food intake and rate of change in body weight (Male Sprague-Dawley rats [11]) | decrease in food consumption compared to control (Male Sprague-Dawley rats [11]; [13]) | also measured
8.30 | 8.30 | 6.62 | 7.85 | ~42 | 9.72 |  |  |  | CC(=O)N[C@@H](CCCNC(=N)N)C(=O)N[C@H]1CCCCNC(=O)C[C@@H](C(N)=O)NC(=O)[C@H](Cc2c[nH]c3ccccc23)NC(=O)[C@H](CCCNC(=N)N)NC(=O)[C@@H](Cc2ccccc2)NC(=O)[C@H](CC(N)=O)NC1=O [compound 155, Ac-Arg-cyclo(Lys-Asn- D-Phe-Arg-Trp-Asp)- NH2] (HELM PEPTIDE1{[ac].R.K.N.[dF].R.W.D.[am]}$PEPTIDE1,PEPTIDE1,3:R3-8:R3$$$V2.0) | robustly induce a penile erection |  |  |  | 
8.40 | 8.40 | 6.88 | 7.59 |  | 9.08 |  |  |  | CC(=O)N[C@@H](CCCNC(=N)N)C(=O)N[C@H]1CCNC(=O)CCC[C@@H](C(N)=O)NC(=O)[C@H](Cc2c[nH]c3ccccc23)NC(=O)[C@H](CCCNC(=N)N)NC(=O)[C@@H](Cc2ccccc2)NC(=O)[C@H](CCC(N)=O)NC1=O [compound 159, Ac-Arg-cyclo(Dab-Gln- D-Phe-Arg-Trp-hGlu)- NH2] |  |  |  |  | 
 |  | 6.16 | 7.60 | ~42 |  |  |  |  | CC(=O)N[C@@H](CCCNC(=N)N)C(=O)N[C@H]1CCCNC(=O)CC[C@@H](C(N)=O)NC(=O)[C@H](Cc2c[nH]c3ccccc23)NC(=O)[C@H](CCCNC(=N)N)NC(=O)[C@@H](Cc2ccccc2)NC(=O)[C@H](CC(N)=O)NC1=O [compound 154, Ac-Arg-cyclo(Orn-Asn- D-Phe-Arg-Trp-Glu)- NH2] | robustly induce a penile erection |  |  |  | 
